# Measured values taken from PubChem BioAssay AID2305 (GlaxoSmithKline (GSK), 2010).
# Several values for one entry are separate records, joined by “and”; a condition that tells them apart may be missing. Equal values may be shown once.
# Test system: P. falciparum 3D7 growth, pLDH absorbance
# Experiment: P. falciparum 3D7 growth inhibition, dose response, strain 3D7 (AID 2305)
row,SMILES,IC50
1,Cc1cccc(NC(=S)NC2CCN(CCCCCNC(=O)/C=C/c3ccc(Cl)c(Cl)c3)CC2)c1,950 nM
2,O=C(Nc1ccc(C(=O)Oc2ccc3ccccc3c2)cc1)N[C@@H](Cc1ccc(O)cc1)C(=O)NC1CCN(Cc2ccc(O)cc2)C1 (stereo partly specified),1060 nM
3,CN1CCC(N(Cc2ccc(N3CCN(Cc4c[nH]c5ccc(Cl)cc45)CC3)nc2)C2CC2)CC1,1000 nM
4,CC1CN=C(Nc2ncc(Cl)cc2Cl)N1 (stereo unspecified),240 nM
5,NC(=O)c1ccc(-n2cnc3cc(F)ccc32)cc1OCc1ccccc1C(F)(F)F (tested in a mixture with another compound),360 nM
6,c1ccc2c(c1)cc(CNCCCN1CCN(CCCNCc3cc4ccccc4c4ccccc34)CC1)c1ccccc12,200 nM
7,CN1CCN(CCNc2c3ccccc3nc3c2ccc2ccccc23)CC1,610 nM
8,COc1c(CN2CCCC2)cccc1-c1cc2c(-c3ccc(C(=O)O)c(C(C)C)c3)ccnc2[nH]1,440 nM
9,COc1ccc(NC(=O)Nc2ccc(C)c(-c3ccc(C(=O)Nc4ccncc4)cc3)c2)cc1,570 nM
10,OCC1CCN(Cc2ccc(-c3cccc(-c4nc5ccc(C(F)(F)F)cc5[nH]4)c3)cc2)CC1,480 nM
11,CCCN(CCC)C(=O)c1cc(C(=O)N[C@@H](Cc2ccccc2)[C@H](O)CNCc2cccc(C(F)(F)F)c2)cc(N2CCCCS2(=O)=O)c1,880 nM
12,c1ccc2c(c1)CN(Cc1cc3ccccc3[nH]1)CC1(CCN(Cc3c[nH]c4cnccc34)CC1)O2,310 nM
13,CN(CCN(C)C(=O)NCc1ccccc1)C(=O)NCc1ccccc1,930 nM
14,Cc1cnc(NCC2CCCCC2)nc1NCC(=O)Nc1ccccc1,710 nM
15,Oc1ccc2[nH]c(-c3ccc(F)cc3F)nc2c1CN1CCC(O)(c2ccccc2)CC1,840 nM
16,CC(CN(C)C)C(=O)Nc1ccc(-c2ccc(-c3nc4ccccc4[nH]3)s2)cc1 (stereo unspecified),720 nM
17,Cc1ccc(-n2cc(CNCC3CCN(CCO)CC3)c(-c3ccc(F)cc3)n2)cc1,2000 nM
18,Cc1ccc(CNC(=O)[C@H](CC(C)C)Nc2cc(C)nc(Nc3ccccc3)n2)cc1,1770 nM
19,Cc1cc(CN2CCC(C(=O)Nc3ccc(-c4nc5ccccc5[nH]4)cc3)CC2)oc1C,1450 nM
20,CC(C)[C@H]1CC[C@H](C)C[C@@H]1OC(=O)N[C@@H](Cc1ccc(O)cc1)C(=O)NC1CCN(Cc2ccc(OCCCN(C)C)cc2)C1 (stereo partly specified),760 nM
21,CCCCCCCc1c(C)[nH]c2ccccc2c1=O,210 nM
22,NOCCCCOc1ccc(Br)cc1,190 nM
23,Cc1[nH]c(C)c(-c2ccc(-c3cccc(OC(F)(F)F)c3)nc2)c(=O)c1Cl,70 nM
24,COc1ccc2nccc([C@@H](O)CN3CCC(NC(=O)/C=C/c4cc([N+](=O)[O-])ccc4OC)CC3)c2c1,260 nM

row,SMILES,IC50
1,Cc1cccc2[nH]c(-c3cccc(-c4ccc(NC(=O)Cc5ccon5)cc4)c3)nc12,1090 nM
2,CC(=O)Nc1nc(N)c2c(ccc3c2ccn3CC(C)C)n1,70 nM
3,NC(=NCc1ccccc1)Nc1cccc(Cc2ccccc2)n1,860 nM
4,CN(C)c1ccc(-c2csc(C(=O)NC3CCCCN(CCC(C)(C)C)C3)c2)cc1 (stereo unspecified),1050 nM
5,NC(N)=NN=CC(=O)Nc1ccc(Br)cc1,880 nM
6,Cc1ccccc1C1CCN(C2CCC(NC(=O)c3ccc(-c4cc(C(F)(F)F)nn4C)s3)CC2)CC1 (stereo unspecified),850 nM
7,COc1ccc2ncc(F)c(CCN3CC[C@H](NC(=O)c4ccc5c(n4)NC(=O)CS5)[C@H](O)C3)c2n1,950 nM
8,Cc1cc(-c2ccc(S(=O)(=O)Nc3cc4c(cc3OC(C)C)CCN(C)CC4)cc2)ccc1Cl,900 nM
9,C=CCn1c(=N)c(C(=O)NCc2ccc(F)cc2)cc2c(=O)n3cccc(C)c3nc21,1170 nM
10,COC(=O)C(Cc1ccccc1)C(CSCc1ccc(OC)cc1)C(=O)N[C@@H](C(=O)OC(C)(C)C)c1ccc(C(C)(C)C)cc1 (stereo partly specified),1030 nM
11,Clc1ncccc1-c1nc(NCCC(c2ccccc2)c2ccccc2)no1,1000 nM
12,CCOc1cc(C(=O)N[C@@H](Cc2ccccc2)[C@H](O)CNCc2cc(OC)cc(OC)c2)cc(N2CCCC2=O)c1,850 nM
13,CCNc1cc(C(=O)N[C@@H](Cc2ccccc2)[C@H](O)CNC(CC)c2cccc(Cl)c2)cc(N2CCCCS2(=O)=O)c1 (stereo partly specified),50 nM
14,CCC(=O)N1CCc2cc(Br)cc(S(=O)(=O)N3CC(C)CC(C)C3)c21 (stereo unspecified),930 nM
15,COc1cc(F)c2ncc(F)c([C@@H](O)CN3CCC(NCc4cc5c(cn4)OCCO5)CC3)c2c1,480 nM
16,Cc1cc([N+](=O)[O-])ccc1NC(=O)Nc1cccc(C(F)(F)F)c1,720 nM
17,CC(C)(CNC(=O)C1CCN(CCOc2ccc(Cl)cc2)CC1)c1nc(-c2ccc(Cl)c(O)c2)c(-c2ccncc2)[nH]1,710 nM
18,CN1CCC(NCc2cccc(-c3ccc(S(=O)(=O)NCc4ccccc4)cc3)c2)CC1,690 nM
19,O=C(NCCN1CCCC1)c1cccc(-c2ccc(-c3nc4ccc(F)cc4[nH]3)cc2)c1,720 nM
20,CN(C)C(=O)CC(=O)NCc1c(Cl)cccc1Cl,200 nM
21,COc1cc(/C=C/C(=O)NC2CCC(CN3CCC(c4c[nH]c5ccccc45)CC3)CC2)ccc1O (stereo unspecified),810 nM and 790 nM
22,O=C(c1cccc(-c2cccc(-c3nc4ccc(C(F)(F)F)cc4[nH]3)c2)c1)N1CCCCC1CN1CCC(O)C1 (stereo unspecified),280 nM
23,CC(C)(Oc1c(C2CCN(CCCCNC(=O)c3ccc(-c4ccc(C#N)cc4)cc3)CC2)ccc2c1CCCC2)C(N)=O,700 nM
24,O=C(/C=C/c1ccc(Cl)c(Cl)c1)NCCCCCN1CCC(NC(=O)c2ccc([N+](=O)[O-])cc2)CC1,670 nM

row,SMILES,IC50
1,N#Cc1cccc(CN2CCCN(Cc3ccc(C(=O)Nc4ccc(Cl)cc4)cc3)CC2)c1,880 nM
2,CS(=O)(=O)c1cccc(-c2cnc(N)c3cc(-c4ccc5c(c4)OCO5)ccc23)c1,1040 nM
3,CCCc1c(C(=O)OCC)c2cc(O)ccc2n1-c1ccc(OC)cc1,140 nM
4,Cc1cc(N[C@@H](Cc2ccccc2)C(=O)NCCOc2ccccc2)nc(NCCc2ccccn2)n1,1520 nM
5,CCn1c(-c2nonc2N)nc2c(-c3cccc(NC(=O)Nc4ccccc4Cl)c3)ncc(OCCCN)c21,670 nM
6,Nc1ncc(-c2ccsc2)c2ccc(-c3cnc[nH]3)cc12,570 nM
7,Cn1cncc1C(=O)Nc1cccc(-c2cccc(-c3nc4ccc(C(F)(F)F)cc4[nH]3)c2)c1,200 nM
8,Cc1cc(NC(=O)[C@H](CC(C)C)Nc2ccc(C#N)c3ccccc23)ccc1F,780 nM
9,Cc1cccc2[nH]c(-c3ccc(-c4ccc(NC(=O)Nc5ccc(Cl)c(Cl)c5)cc4)s3)nc12,180 nM
10,O=c1ccc2ccc(F)c3c2n1CC3CN1CCC(NCc2ccc(-c3cccc(Cl)c3)nc2)CC1 (stereo unspecified),990 nM
11,COc1ccc(C(C)Nc2nc(N)c3cc(OC)c(OC)cc3n2)cc1 (stereo unspecified),940 nM
12,CC1CCCC(NCc2c(O)ccc3ccccc23)C1 (stereo unspecified),930 nM
13,c1cc(CNCC2CCCO2)cc(-c2cccc(-c3nc4ccccc4[nH]3)c2)c1 (stereo unspecified),860 nM
14,CS(=O)(=O)Nc1ccc2[nH]cc(C3CCN(CC4CCC(NC(=O)/C=C/c5ccccc5Cl)CC4)CC3)c2c1 (stereo unspecified),790 nM
15,CC[C@H]1CN2CC[C@@H]1C[C@H]2[C@H](O)c1cc(N2CCC(CO)CC2)nc2ccc(OC)cc12,160 nM
16,OC(CNCc1ccco1)Cn1c2ccc(Br)cc2c2cc(Br)ccc21 (stereo unspecified),1070 nM
17,CCC(NC(=O)c1ccccc1NC(=O)c1ccc(C)cc1)C(=O)OC (stereo unspecified),760 nM
18,Cc1cc(-c2cccc(CNC3CCN(C)CC3)c2)ccc1S(=O)(=O)NCCN1CCCC1,980 nM
19,CC(C)n1c(CC2CCN(CC3CCN(C(=O)/C=C/c4ccc(Cl)c(Cl)c4)CC3)CC2)nc2ccccc21,610 nM
20,COc1ccc2nccc([C@@H](O)CN3CCC(NCc4nc5cc(F)ccc5o4)CC3)c2c1,150 nM
21,CCNc1cc(C)nc(Nc2ccc(NC(=O)c3ccccc3Cl)cc2)n1,1010 nM
22,CCCN1CCN(CCCNC(=O)c2cc3c(-c4ccc(Cl)cc4)nn(C)c3s2)CC1,1100 nM
23,O=C(C=Cc1ccc(Cl)c(Cl)c1)NCCCCCN1CCCC(CCCNC(=O)/C=C/c2ccccc2)C1 (stereo unspecified),590 nM
24,COc1ccc(Nc2ncc3c(-c4cccc(NC(=O)Cc5cccc(O)c5)c4)c[nH]c3n2)cc1OC,700 nM

row,SMILES,IC50
1,Cn1nccc1C(=O)NCCNCc1ccc(-c2ccc(-c3nc4ccc(F)cc4[nH]3)cc2)cc1,300 nM
2,O=C(Nc1ccc2nc(-c3ccc4nc(NC(=O)C5CCCCC5)sc4c3)[nH]c2c1)C1CCCCC1,610 nM
3,COc1ccc(CN2CCN(CCOC(c3ccccc3)c3ccc(Cl)cc3)CC2)c(O)c1 (stereo unspecified),710 nM
4,Clc1ccc(CNc2nc(NCCc3cnc[nH]3)nc(Nc3ccc4c(c3)OCO4)n2)cc1,950 nM
5,Cc1cc(C)c2cc(CNCCCNc3nc4ccccc4[nH]3)[nH]c2c1,770 nM
6,CCN(CC)CC#Cc1ccc2[nH]c(C)c(Cl)c(=O)c2c1,700 nM
7,Cc1ccc(C(NC(=O)Cc2ccccc2)c2ccc3cccnc3c2O)cc1 (stereo unspecified),620 nM
8,O=C(NC1CC1)c1ccc(N2CCOc3ccc(Cl)cc32)s1,800 nM
9,CSc1nc2nc(C)c(Cc3cccc(F)c3)c(C)n2n1,900 nM
10,COc1ccc2c(NN=Cc3ccc([N+](=O)[O-])cc3)ccnc2c1,340 nM
11,CCC(C)NCCC(c1ccccc1)c1ccccc1O (stereo unspecified),790 nM
12,COc1cccc(-c2[nH]c3ccccc3c2CN2CCC(c3c(C)cccc3C)CC2)c1,1020 nM
13,O=C(Nc1cccc(CCNCc2ccccc2)c1)Nc1cccc2ccccc12,730 nM
14,CCc1c[nH]c2c(N(c3ccccc3)S(C)(=O)=O)cc(C(=O)N[C@@H](Cc3ccccc3)[C@H](O)CNCc3cccc(C(F)(F)F)c3)cc12,1000 nM
15,CCCC(C)N(Cc1ccc(C(C)(C)C)cc1)C(=O)c1cccc(OC)c1 (stereo unspecified),340 nM
16,CC(C)N1CCN(CCCNc2c3ccccc3nc3ccccc23)CC1,230 nM
17,CC(C)CC(NC(=O)c1ccc(F)cc1)C(=O)N[C@H](/C=N/N1CCNC1=O)CC(C)C (stereo partly specified),1030 nM
18,CCCNC(=O)c1ccnc(-c2ccc(CNC3Cc4ccccc4C3)cc2)c1,940 nM
19,COc1ccccc1Cn1ccnc1SCC(=O)Nc1cc(C(F)(F)F)ccc1Cl,100 nM
20,O=C(c1ccccc1[N+](=O)[O-])N(Cc1ccccc1)c1ccccn1,190 nM
21,CC(C)(C)[C@@H](Nc1ccc(C#N)c2ccccc12)C(=O)NC1(Cc2ccc(O)cc2)CCCC1,1440 nM
22,Fc1cc(Cl)ccc1Nc1ccnc2cc(-c3ccc(CN4CCNCC4)o3)ccc12,280 nM
23,OCC1CCN(Cc2cccc(C#Cc3cc4ncnc(Nc5ccc(OCc6cccc(F)c6)c(Cl)c5)c4s3)n2)CC1,550 nM
24,CC(C)Cn1c(Sc2ccc(C#N)c([N+](=O)[O-])c2)nnc1-c1cccs1,1080 nM
